± gives the expanded uncertainty stated by the source.
Details: Liquid, Vibrating tube method

CCCC[N+]1(C)CCCC1.O=S(=O)([N-]S(=O)(=O)C(F)(F)F)C(F)(F)F
mass density [kg/m3]
Details | 100 kPa | 1000 kPa | 10000 kPa | 20000 kPa | 40000 kPa | 60000 kPa | 80000 kPa | 100000 kPa | 120000 kPa
278.15 K | 1415.1 ± 1.4 | 1415.7 ± 1.4 | 1421.5 ± 1.4 | 1428 ± 1.5 | 1439.8 ± 1.6 | 1450.6 ± 1.8 | 1460.8 ± 2.1 | 1470.2 ± 2.3 | 1479.1 ± 2.6
298.15 K | 1395.2 ± 1.4 | 1395.8 ± 1.4 | 1401.8 ± 1.4 | 1408.4 ± 1.5 | 1420.7 ± 1.6 | 1432.2 ± 1.8 | 1442.8 ± 2 | 1452.9 ± 2.3 | 1462.9 ± 2.6
313.15 K | 1381.6 ± 1.4 | 1382.3 ± 1.4 | 1388.8 ± 1.4 | 1395.8 ± 1.5 | 1408.7 ± 1.6 | 1420.7 ± 1.8 | 1431.6 ± 2 | 1441.8 ± 2.2 | 1451.8 ± 2.5
333.15 K | 1364 ± 1.4 | 1364.7 ± 1.4 | 1371.6 ± 1.4 | 1379 ± 1.5 | 1392.6 ± 1.6 | 1405.2 ± 1.7 | 1416.6 ± 2 | 1427.4 ± 2.2 | 1437.6 ± 2.5
348.15 K | 1351.1 ± 1.4 | 1351.8 ± 1.4 | 1359.1 ± 1.4 | 1366.9 ± 1.5 | 1381.1 ± 1.6 | 1394 ± 1.7 | 1405.9 ± 1.9 | 1416.9 ± 2.2 | 1427.5 ± 2.4
373.15 K | 1330.5 ± 10 | 1330.8 ± 10 | 1338.6 ± 10 | 1347 ± 10 | 1362.2 ± 10 | 1375.9 ± 10 | 1388.3 ± 10 | 1399.9 ± 10 | 1410.9 ± 10
398.15 K | 1307.8 ± 10 | 1308.7 ± 10 | 1316.4 ± 10 | 1325.3 ± 10 | 1341.7 ± 10 | 1356.3 ± 10 | 1369.7 ± 10 | 1382 ± 10 | 1393.5 ± 10

From the NIST ThermoML archive (doi:10.1016/j.jct.2012.10.004)
